{"source": "patent US20250230193A1", "about": "“CYCLIC COMPOUND HAVING SELECTIVE KRAS INHIBITORY EFFECT ON HRAS AND NRAS” (CHUGAI SEIYAKU KABUSHIKI KAISHA, priority 2022, published 2025)", "key": {"[1]": {"molecular_target": "GDP-bound HRAS wild-type protein (Homo sapiens, UniProt P01112)", "sequence (P01112 whole entry)": "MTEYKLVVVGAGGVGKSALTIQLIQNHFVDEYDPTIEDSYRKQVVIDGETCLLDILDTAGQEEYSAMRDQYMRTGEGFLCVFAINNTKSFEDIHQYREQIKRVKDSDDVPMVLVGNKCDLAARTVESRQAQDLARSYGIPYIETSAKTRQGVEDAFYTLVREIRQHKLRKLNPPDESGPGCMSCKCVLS", "test": "Binding to HRAS by surface plasmon resonance (SPR), Single Cycle Kinetics", "settings": "SPR; for HRAS/KRAS (ratio of KD value with respect to HRAS to KD value with respect to KRAS): GDP-bound HRAS wild-type vs GDP-bound KRAS wild-type"}, "[2]": {"molecular_target": "GDP-bound NRAS wild-type protein (Homo sapiens, UniProt P01111)", "sequence (P01111 whole entry)": "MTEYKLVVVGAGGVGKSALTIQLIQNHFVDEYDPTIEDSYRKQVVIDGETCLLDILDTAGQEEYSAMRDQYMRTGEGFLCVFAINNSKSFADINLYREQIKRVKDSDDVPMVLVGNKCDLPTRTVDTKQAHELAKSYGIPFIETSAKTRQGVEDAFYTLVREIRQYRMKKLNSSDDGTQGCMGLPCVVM", "test": "Binding to NRAS by surface plasmon resonance (SPR), Single Cycle Kinetics", "settings": "SPR; for NRAS/KRAS (ratio of KD value with respect to NRAS to KD value with respect to KRAS): GDP-bound NRAS wild-type vs GDP-bound KRAS wild-type"}}, "note": "*1 amine or outer side, *2 acyl side, *3 side chain or, on linkers, in order; H or OH if unused. Where a SMILES comes first, the peptide text is derived from it. Bridges are numbered along the chain shown (N, C = ends). [ ]: non-standard residue; d: D form. The star is where a group is joined. hPhe(3,5-F2-4-CF3) = N[C@@H](CCc1cc(F)c(C(F)(F)F)c(F)c1)C(=O)O; hPhe(3-Cl-4-CF3) = N[C@@H](CCc1ccc(C(F)(F)F)c(Cl)c1)C(=O)O; NPrPhe(4-CF3) = CCCN[C@@H](Cc1ccc(C(F)(F)F)cc1)C(=O)O; X38 = C[C@@H]1CN([*:1])[C@@H]1C(=O)[*:2]; NMeGly(cPent) = CN[C@H](C(=O)O)C1CCCC1; Nva(3-Et) = CCC(CC)[C@H](N)C(=O)O; Hyp = O=C(O)[C@@H]1C[C@@H](O)CN1; NMeD = CN[C@@H](CC(=O)O)C(=O)O; NMeL = CN[C@@H](CC(C)C)C(=O)O; Morpholide = C1CN(*)CCO1; NMeA = CN[C@@H](C)C(=O)O; Ac5c = NC1(C(=O)O)CCCC1; Aze = O=C(O)[C@@H]1CCN1; Sar = CNCC(=O)O"}
{"smiles": "CCCN1C(=O)CN(C)C(=O)CNC(=O)[C@H]([C@@H](C)CC)NC(=O)[C@H](CC(C)C)N(C)C(=O)C[C@@H](C(=O)N2CCOCC2)NC(=O)[C@H](C2CCCC2)N(C)C(=O)C2(CCCC2)NC(=O)[C@@H]2CCCN2C(=O)[C@H](CCc2ccc(C(F)(F)F)c(Cl)c2)NC(=O)CN(C)C(=O)[C@@H]1Cc1ccc(C(F)(F)F)cc1", "note": "[PP0325] ([NMeL]IG[Sar][NPrPhe(4-CF3)][Sar][hPhe(3-Cl-4-CF3)]P[Ac5c][NMeGly(cPent)]D-Morpholide; lactam N-11)", "values": [{"measurement": "HRAS/KRAS (ratio of KD for GDP-bound HRAS wild-type to KD for KRAS)", "setting": "[1]", "result": "B (a compound having 3 or more and less than 10 is denoted as B)"}, {"measurement": "NRAS/KRAS (ratio of KD for GDP-bound NRAS wild-type to KD for KRAS)", "setting": "[2]", "result": "B (a compound having 3 or more and less than 10 is denoted as B)"}]}
{"smiles": "CCO[C@@H]1C[C@H]2C(=O)NC3(CCC3)C(=O)N(C)[C@@H](CC(F)F)C(=O)N(C)[C@H](C(=O)N3CCOCC3)CC(=O)N(C)[C@@H](CC(C)C)C(=O)N[C@@H]([C@@H](C)CC)C(=O)N(C)CC(=O)N(C)[C@H]3CCCCN(C3=O)[C@@H](Cc3ccc(C(F)(F)F)cc3)C(=O)N(C)CC(=O)N[C@@H](CCc3cc(F)c(C(F)(F)F)c(F)c3)C(=O)N2C1", "note": "[PP0813]", "values": [{"measurement": "HRAS/KRAS (ratio of KD value with respect to HRAS to KD value with respect to KRAS)", "setting": "[1]; KD ratio", "result": "B (a compound having 3 or more and less than 10 is denoted as B)"}, {"measurement": "NRAS/KRAS (ratio of KD value with respect to NRAS to KD value with respect to KRAS)", "setting": "[2]; KD ratio", "result": "C (A compound having a KD ratio of 0.1 or more and less than 3 is denoted as C)"}]}
{"smiles": "CCCN1C(=O)CN(C)C(=O)[C@@H]2[C@H](C)CN2C(=O)[C@H]([C@@H](C)CC)NC(=O)[C@H](CC(C)C)N(C)C(=O)C[C@@H](C(=O)N2CCOCC2)N(C)C(=O)[C@H](C2CCCC2)N(C)C(=O)C2(CCCC2)NC(=O)[C@@H]2CCCN2C(=O)[C@H](CCc2ccc(C(F)(F)F)c(Cl)c2)NC(=O)CN(C)C(=O)[C@@H]1Cc1ccc(C(F)(F)F)cc1", "note": "[PP0257] ([NMeL]I[X38][Sar][NPrPhe(4-CF3)][Sar][hPhe(3-Cl-4-CF3)]P[Ac5c][NMeGly(cPent)][NMeD]-Morpholide; lactam N-11)", "values": [{"measurement": "HRAS/KRAS (ratio of KD for GDP-bound HRAS wild-type to KD for KRAS)", "setting": "[1]", "result": "B (a compound having 3 or more and less than 10 is denoted as B)"}, {"measurement": "NRAS/KRAS (ratio of KD for GDP-bound NRAS wild-type to KD for KRAS)", "setting": "[2]", "result": "B (a compound having 3 or more and less than 10 is denoted as B)"}]}
{"smiles": "CCO[C@@H]1C[C@H]2C(=O)NC3(CC(C)(C)C3)C(=O)N(C)[C@@H](C(CC)CC)C(=O)N(C)[C@H](C(=O)N3CCCC3)CC(=O)N(C)[C@@H](C)C(=O)N[C@@H]([C@@H](C)CC)C(=O)N(C)CC(=O)N(C)[C@H]3C/C=C\\CCN(C3=O)[C@@H](Cc3ccc(C)cc3)C(=O)N(C)CC(=O)N[C@@H](CCc3ccc(C(F)(F)F)c(OC)c3)C(=O)N2C1", "note": "[PP2169]", "values": [{"measurement": "HRAS/KRAS (ratio of KD value with respect to HRAS to KD value with respect to KRAS)", "setting": "[1]", "result": "A (a compound having 10 or more and less than 20 is denoted as A)"}, {"measurement": "NRAS/KRAS (ratio of KD value with respect to NRAS to KD value with respect to KRAS)", "setting": "[2]", "result": "AA (a compound having 20 or more is denoted as AA)"}]}
{"smiles": "CCC[C@H]1C(=O)N[C@@H]([C@@H](C)CC)C(=O)N(C)CC(=O)N(C)[C@H]2C/C=C\\CCN(C2=O)[C@@H](Cc2ccc(C)cc2)C(=O)N(C)CC(=O)N[C@@H](CCc2ccc(C(F)(F)F)c(OC)c2)C(=O)N2C[C@H](OCC)C[C@H]2C(=O)NC2(CC(C)(C)C2)C(=O)N(C)[C@@H](C(CC)CC)C(=O)N(C)[C@H](C(=O)N(C)C)CC(=O)N1C", "note": "[PP2068]", "values": [{"measurement": "HRAS/KRAS (ratio of KD value with respect to HRAS to KD value with respect to KRAS)", "setting": "[1]", "result": "B (a compound having 3 or more and less than 10 is denoted as B)"}, {"measurement": "NRAS/KRAS (ratio of KD value with respect to NRAS to KD value with respect to KRAS)", "setting": "[2]", "result": "A (a compound having 10 or more and less than 20 is denoted as A)"}]}
{"smiles": "CCCN1C(=O)[C@@H]2CCN2C(=O)[C@H](C)N(C)C(=O)[C@H]([C@@H](C)CC)NC(=O)[C@H](CC(C)C)N(C)C(=O)C[C@@H](C(=O)N(C)C)N(C)C(=O)[C@H](C2CCCC2)N(C)C(=O)C2(CCCC2)NC(=O)[C@@H]2C[C@@H](OCC)CN2C(=O)[C@H](CCc2ccc(C(F)(F)F)c(Cl)c2)NC(=O)CN(C)C(=O)[C@@H]1Cc1ccc(C(F)(F)F)cc1", "note": "[PP0438] ([NMeL]I[NMeA][Aze][NPrPhe(4-CF3)][Sar][hPhe(3-Cl-4-CF3)][Hyp](Et)[Ac5c][NMeGly(cPent)][NMeD]-NMe2; lactam N-11)", "values": [{"measurement": "HRAS/KRAS (ratio of KD value with respect to GDP-bound HRAS wild-type protein to KD value with respect to KRAS)", "setting": "[1]", "result": "C (A compound having a KD ratio of 0.1 or more and less than 3 is denoted as C)"}, {"measurement": "NRAS/KRAS (ratio of KD value with respect to GDP-bound NRAS wild-type protein to KD value with respect to KRAS)", "setting": "[2]", "result": "C (A compound having a KD ratio of 0.1 or more and less than 3 is denoted as C)"}]}
{"smiles": "CCCN1C(=O)CN(C)C(=O)[C@@H]2CCN2C(=O)[C@H](C(CC)CC)NC(=O)[C@H](CC(C)C)N(C)C(=O)C[C@@H](C(=O)N2CCOCC2)N(C)C(=O)[C@H](C2CCCC2)N(C)C(=O)C2(CCCC2)NC(=O)[C@@H]2CCCN2C(=O)[C@H](CCc2cc(F)c(C(F)(F)F)c(F)c2)NC(=O)CN(C)C(=O)[C@@H]1Cc1ccc(C(F)(F)F)cc1", "note": "[PP0785] ([NMeL][Nva(3-Et)][Aze][Sar][NPrPhe(4-CF3)][Sar][hPhe(3,5-F2-4-CF3)]P[Ac5c][NMeGly(cPent)][NMeD]-Morpholide; lactam N-11)", "values": [{"measurement": "HRAS/KRAS (ratio of KD value with respect to GDP-bound HRAS wild-type protein to KD value with respect to KRAS)", "setting": "[1]", "result": "B (a compound having 3 or more and less than 10 is denoted as B)"}, {"measurement": "NRAS/KRAS (ratio of KD value with respect to GDP-bound NRAS wild-type protein to KD value with respect to KRAS)", "setting": "[2]", "result": "B (a compound having 3 or more and less than 10 is denoted as B)"}]}
